# Data reported in patent US20060002932A1, “Methods and compositions for enhancement of immunity by in vivo depletion of immunosuppressive cell activity” (priority 2004, published 2006).
# “Also recorded” adds a separate entry of the source.
# Assays:
# [1] = system: CD4^+CD25^− and CD4^+CD25^int cells; test: MTT cytotoxicity assay on CD25 negative/intermediate CD4+ T cells; format: cell-based, human
# Method: After 48 hours of incubation, 20 μL MTT from a 5 mg/mL stock was added and incubation was continued for another 4 hours. The formazan crystals were solubilized by adding 100 μL isopropanol/0.1 M hydrochloric acid and incubating at 37° C. for 2 hours. The absorbance of the formazan product was measured on an enzyme-linked immunosorbent assay (ELISA) plate reader at 570 nm.
# Interferon-γ and IL-4 ELISPOT analyses were performed using PBMC obtained prior to, during, and after vaccination. PBMC were cultured overnight in complete RPMI 1640 medium. CD4^+ and CD8^+ T cells were isolated from PBMC by negative depletion (Miltenyi). After blocking, 1×10^5 T cells and 1×10^4 RNA-transfected DC were added to each well of 96-well nitrocellulose plates (Multiscreen-IP, Millipore) precoated with 2 μg/ml Interferon-γ capture antibody (Endogen) or with IL-4 capture antibody (BD Biosciences Pharmingen). Plates were incubated for 20 hours at 37° C., and biotinylated Interferon-γ detection antibody (Endogen) or biotinylated IL-4 antibody (BD Biosciences Pharmingen) was added to each well. […] After washing, spots were counted using an automated ELISPOT reader (Carl Zeiss). […] Then, 50 μl of supernatant was harvested, and release of ^51Cr was measured with a scintillation counter. […] Incorporation of thymidine was determined using a liquid scintillation counter.
# [2] = system: antigen-specific CTL from PBMC; test: 51Cr cytotoxicity assay of CTL stimulated from DAB389IL-2-depleted PBMC; format: cell-based, human
# [3] = Clinical toxicity in cancer patients; format: in vivo, human
# Method: All subjects received a total of three intradermal injections of total tumor RNA-transfected DC. The injections were given intradermally at biweekly intervals and consisted of 1×10^7 cells suspended in 200 μL 0.9% sodium chloride (Abbott Laboratories, Abbott Park, Ill.) at each vaccination cycle. Following treatment, subjects were evaluated for toxicity, immunological and clinical response to therapy. Follow-up visits occurred biweekly for three visits, monthly for one visit, then every 3 months or until the subject was removed from the study.
# Having shown that regulatory T cell elimination is capable of enhancing T-cell responses in vitro, a clinical study was initiated to analyze the efficacy of this strategy to a) eliminate regulatory T cells and b) to enhance a vaccine-induced T-cell response in end-stage cancer patients. Seven patients with metastatic renal cell (RCC), and one subject with disseminated ovarian carcinoma (OVA) were treated in an institutional review board (IRB) and Food and Drug Administration (FDA)-approved pilot study. […] PBMCs were also obtained from a subject who received DAB389IL-2 only under separate informed consent.
# Treatment of patients was performed following written informed consent as part of an Institutional Review Board- and Federal Drug Administration-approved protocol. Patients with histologically-confirmed metastatic RCC were eligible for this study. One patient with disseminated ovarian carcinoma was included and treated on a compassionate basis. All patients were required to have adequate hepatic, renal, and neurological function, a life expectancy of >6 months, and a Karnofsky performance status of >70%. Patients must have had recovered from all toxicities related to any prior therapy and have not received any chemotherapy, radiation therapy, or immunotherapy for at least 6 weeks prior to study entry. Excluded from the study were patients with CNS metastases, with a history of autoimmune disease, with serious intercurrent chronic or acute illnesses. Patients on immunosuppressive agents were also excluded. […] All subjects received 3 intradermal injections of tumor RNA-transfected DC. The injections were given intradermally at biweekly intervals and consisted of 1×10^7 cells suspended in 200 μL 0.9% sodium chloride at each vaccination. Following treatment, subjects were evaluated for clinical toxicity, immunological and clinical responses. Due to regulatory restrictions and, in some subjects, limited access to tumor tissue, no tumor biopsies were performed.
# Having shown that Treg elimination is capable of enhancing T-cell responses in vitro, a clinical study was initiated to test the Treg depletion concept in a human vaccination setting. Eleven patients including 10 with metastatic RCC and one with disseminated ovarian carcinoma (OVA) were treated in an Institutional Review Board (IRB) and Food and Drug Administration (FDA)-approved study.
# [4] = system: renal tumor-specific CD4^+ T cells; test: Cytokine profile of vaccine-induced CD4+ T cells (ELISPOT, Th1/Th2 bead array); format: in vivo, human
substance,measurement,setting,value
denileukin diftitox [DAB389IL-2],concentration above which cell death occurred in CD4^+CD25^− and CD4^+CD25^int cells,[1],higher than 10 nM
same,cell death of CD4^+CD25^− and CD4^+CD25^int cells,[1]; concentrations up to 10 nM,did not result in significant cell death
same,improvement of antigen-specific killing,"[2]; MART-1 peptide-pulsed DC as stimulators, DAB389IL-2 5 nM","only modest, statistically insignificant improvement of antigen-specific killing"
same,lytic activity of CTL stimulated from Treg-depleted vs non-depleted PBMC,"[2]; mRNA-transfected DC stimulators (hTERT, MART-1)",higher lytic activity against their cognate targets; also recorded: significantly higher lytic activity
same,improvement of CTL responses,"[2]; recall antigen fluM1, or peptide-loaded DC as stimulators",ineffective in improving CTL responses
same,reduction in absolute neutrophil counts (ANC),"[3]; average, 5 of 6 evaluable subjects",10%
same,decrease in absolute neutrophil counts (ANC),[3]; one subject,20%
same,ALT elevations,[3]; single i.v. dose 18 μg/kg,"transient, grade II ALT elevations in one subject; also recorded: transient grade II serum alanine aminotransferase (ALT) elevations (n=1)"
same,constitutional symptoms,[3]; single i.v. dose 18 μg/kg,Grade I constitutional symptoms in two subjects; also recorded: grade I constitutional symptoms such as low-grade fever and malaise (n=4)
same,serum rheumatoid factor,[3]; single i.v. dose 18 μg/kg,grade I elevation of serum rheumatoid factor (n=1)
same,Th1/Th2 cytokine secretion by vaccine-induced T cells (bead array),[4]; 18 hours stimulation with RCC RNA-transfected DC,"secretion of Th-1 type cytokines (IL-2, Interferon-γ, or TNF-α), but not Th-2 type cytokines"
same,Interferon-γ / IL-4 secreting renal tumor-specific CD4 T cells (ELISPOT),"[4]; one subject, DAB389IL-2 followed by vaccination","stimulation of Interferon-γ, but not IL-4-secreting renal tumor-specific CD4 T cells"
